Data from ChEMBL document CHEMBL5614367, “Hydroxamic acid hybrids: Histone deacetylase inhibitors with anticancer therapeutic potency” (Eur J Med Chem, 2023).

Assays:
DU-145 = assay: cells; format: functional, cell-based; settings: Homo sapiens, DU-145, 48 h; pooled result: one value given for 6 cell lines, strains, targets or settings
Histone deacetylase = assay: Inhibition of human HDAC extracted from human HeLa cell nuclear extract incubated for 30 mins by fluorometric analysis; format: subcellular, Nucleus
[1] = biological target: Epidermal growth factor receptor (Homo sapiens) (UniProt P00533); assay: Inhibition of EGFR (unknown origin) at 10 uM preincubated for 0.5 hrs followed by substrate addition and measured after 1 hr by ADP-Glo assay relative to control; settings: time 1.5 hrs
Sequence of Epidermal growth factor receptor (Homo sapiens) (P00533 whole entry): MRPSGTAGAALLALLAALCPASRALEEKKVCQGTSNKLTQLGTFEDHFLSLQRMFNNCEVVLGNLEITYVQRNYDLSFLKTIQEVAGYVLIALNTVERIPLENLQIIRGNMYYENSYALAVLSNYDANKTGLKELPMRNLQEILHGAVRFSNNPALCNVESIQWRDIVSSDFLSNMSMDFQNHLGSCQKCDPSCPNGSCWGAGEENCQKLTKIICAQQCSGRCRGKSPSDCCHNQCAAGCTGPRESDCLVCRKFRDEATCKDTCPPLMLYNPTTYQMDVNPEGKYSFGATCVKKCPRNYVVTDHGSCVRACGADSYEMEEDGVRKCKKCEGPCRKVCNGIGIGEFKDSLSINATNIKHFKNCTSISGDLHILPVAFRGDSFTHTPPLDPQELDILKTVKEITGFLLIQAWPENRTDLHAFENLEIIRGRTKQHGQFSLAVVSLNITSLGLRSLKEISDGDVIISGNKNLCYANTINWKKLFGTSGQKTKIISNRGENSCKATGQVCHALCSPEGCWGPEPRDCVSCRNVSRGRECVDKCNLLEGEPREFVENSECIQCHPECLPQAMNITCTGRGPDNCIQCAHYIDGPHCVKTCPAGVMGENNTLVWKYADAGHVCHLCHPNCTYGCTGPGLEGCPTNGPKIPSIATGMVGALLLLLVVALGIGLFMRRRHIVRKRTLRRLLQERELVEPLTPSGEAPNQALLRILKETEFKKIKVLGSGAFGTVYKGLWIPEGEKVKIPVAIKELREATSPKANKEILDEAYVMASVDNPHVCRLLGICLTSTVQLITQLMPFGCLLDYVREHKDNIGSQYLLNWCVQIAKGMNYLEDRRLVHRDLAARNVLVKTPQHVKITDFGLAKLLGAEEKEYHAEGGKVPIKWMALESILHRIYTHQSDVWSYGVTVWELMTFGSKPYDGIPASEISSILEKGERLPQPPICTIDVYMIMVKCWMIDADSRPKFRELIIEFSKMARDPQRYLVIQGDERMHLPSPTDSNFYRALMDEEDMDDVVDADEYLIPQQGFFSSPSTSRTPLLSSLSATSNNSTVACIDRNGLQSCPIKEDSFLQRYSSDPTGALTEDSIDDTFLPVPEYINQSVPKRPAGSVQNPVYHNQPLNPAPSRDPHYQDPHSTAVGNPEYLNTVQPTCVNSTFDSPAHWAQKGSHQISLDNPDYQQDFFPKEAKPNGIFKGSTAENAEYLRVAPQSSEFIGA

HCT 116 TP53(-/-) = assay: cells; format: functional, cell-based; settings: Homo sapiens, 72 h
[2] = biological target: T1, Protein deacetylase HDAC6 (Homo sapiens, UniProt Q9UBN7); assay: Inhibition of HDAC6 (unknown origin)
T1 sequence (Q9UBN7 whole entry): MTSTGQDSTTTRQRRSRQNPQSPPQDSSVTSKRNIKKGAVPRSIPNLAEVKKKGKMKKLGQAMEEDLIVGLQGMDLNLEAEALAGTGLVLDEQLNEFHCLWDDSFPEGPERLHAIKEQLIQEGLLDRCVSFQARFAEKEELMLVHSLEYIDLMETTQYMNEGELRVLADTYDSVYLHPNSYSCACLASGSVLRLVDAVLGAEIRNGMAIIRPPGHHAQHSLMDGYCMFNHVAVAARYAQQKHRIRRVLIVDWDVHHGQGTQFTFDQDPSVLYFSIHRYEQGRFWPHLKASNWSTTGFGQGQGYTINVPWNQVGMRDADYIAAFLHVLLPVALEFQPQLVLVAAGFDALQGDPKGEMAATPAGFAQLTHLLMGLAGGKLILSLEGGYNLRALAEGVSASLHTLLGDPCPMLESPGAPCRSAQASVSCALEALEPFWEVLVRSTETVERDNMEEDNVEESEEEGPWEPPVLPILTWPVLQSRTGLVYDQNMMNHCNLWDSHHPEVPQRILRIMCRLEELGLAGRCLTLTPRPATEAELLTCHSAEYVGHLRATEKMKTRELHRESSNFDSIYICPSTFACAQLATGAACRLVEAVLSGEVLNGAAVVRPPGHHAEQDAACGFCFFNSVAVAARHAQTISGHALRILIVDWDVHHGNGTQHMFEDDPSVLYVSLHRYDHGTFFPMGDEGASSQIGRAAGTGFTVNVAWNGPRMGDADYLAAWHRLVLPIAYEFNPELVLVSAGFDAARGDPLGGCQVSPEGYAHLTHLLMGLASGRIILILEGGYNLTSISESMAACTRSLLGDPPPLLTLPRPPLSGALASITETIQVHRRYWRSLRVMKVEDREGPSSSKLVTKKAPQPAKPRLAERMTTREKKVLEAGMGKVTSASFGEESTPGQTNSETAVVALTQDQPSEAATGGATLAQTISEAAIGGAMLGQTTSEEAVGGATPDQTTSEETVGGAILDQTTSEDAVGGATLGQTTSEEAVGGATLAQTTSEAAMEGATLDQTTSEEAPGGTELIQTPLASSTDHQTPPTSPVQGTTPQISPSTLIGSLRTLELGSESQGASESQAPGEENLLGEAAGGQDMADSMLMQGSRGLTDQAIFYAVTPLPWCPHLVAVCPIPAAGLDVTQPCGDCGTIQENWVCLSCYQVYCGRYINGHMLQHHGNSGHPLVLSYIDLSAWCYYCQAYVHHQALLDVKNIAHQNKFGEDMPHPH

Huh-7 = assay: cells; format: functional, cell-based; settings: Homo sapiens, Huh-7, 72 h
HCT-116 [3] = assay: cells; format: functional, cell-based; settings: Homo sapiens, HCT-116, 72 h
[4] = Cytotoxicity against human HDFa cells assessed as inhibition of cell growth incubated for 72 hrs by MTT assay; format: toxicity, cell-based
518A2 = assay: cells; format: functional, cell-based; settings: Homo sapiens, 518A2, 72 h
HepG2 = assay: cells; format: functional, cell-based; settings: Homo sapiens, HepG2, 72 h
K562 [5] = assay: cells; format: functional, cell-based; settings: Homo sapiens, K562, 72 h; pooled result: one value given for 11 cell lines, strains, targets or settings
Histone deacetylase 8 = biological target: T2, Histone deacetylase 8 (Homo sapiens, UniProt Q9BY41); assay: Inhibition of HDAC8 (unknown origin)
T2 sequence (Q9BY41 whole entry): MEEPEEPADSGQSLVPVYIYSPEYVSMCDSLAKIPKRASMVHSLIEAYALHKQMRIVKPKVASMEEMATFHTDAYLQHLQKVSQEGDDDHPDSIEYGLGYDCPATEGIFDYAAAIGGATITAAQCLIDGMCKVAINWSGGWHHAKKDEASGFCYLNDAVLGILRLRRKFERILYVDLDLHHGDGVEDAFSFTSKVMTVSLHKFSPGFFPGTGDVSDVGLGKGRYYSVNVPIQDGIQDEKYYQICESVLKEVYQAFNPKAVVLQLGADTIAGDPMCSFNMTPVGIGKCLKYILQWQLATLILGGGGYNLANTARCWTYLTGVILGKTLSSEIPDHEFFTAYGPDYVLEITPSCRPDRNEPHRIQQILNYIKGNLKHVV

HGC-27 = assay: Antitumor activity against human HGC-27 cells xenografted in mouse assessed as tumor weight inhibition at 30 to 150 mg/kg, ip relative to control; format: functional; settings: dose 30-150 mg/kg
A20 = assay: Antitumor activity against mouse A20 cells implanted in mouse assessed as tumor weight inhibition at 15 mg/kg, ip measured after 12 days relative to control; format: functional; settings: A20, 288 h, time 12 day
HCT-116 [6] = assay: Antitumor activity against human HCT-116 cells xenografted in mouse assessed as tumor weight inhibition at 30 to 150 mg/kg, ip relative to control; format: functional; settings: dose 30-150 mg/kg
Histone deacetylase 2 = Histone deacetylase 2 (Homo sapiens, UniProt Q92769); assay: Inhibition of HDAC2 (unknown origin)
Sequence of Histone deacetylase 2 (Q92769 whole entry): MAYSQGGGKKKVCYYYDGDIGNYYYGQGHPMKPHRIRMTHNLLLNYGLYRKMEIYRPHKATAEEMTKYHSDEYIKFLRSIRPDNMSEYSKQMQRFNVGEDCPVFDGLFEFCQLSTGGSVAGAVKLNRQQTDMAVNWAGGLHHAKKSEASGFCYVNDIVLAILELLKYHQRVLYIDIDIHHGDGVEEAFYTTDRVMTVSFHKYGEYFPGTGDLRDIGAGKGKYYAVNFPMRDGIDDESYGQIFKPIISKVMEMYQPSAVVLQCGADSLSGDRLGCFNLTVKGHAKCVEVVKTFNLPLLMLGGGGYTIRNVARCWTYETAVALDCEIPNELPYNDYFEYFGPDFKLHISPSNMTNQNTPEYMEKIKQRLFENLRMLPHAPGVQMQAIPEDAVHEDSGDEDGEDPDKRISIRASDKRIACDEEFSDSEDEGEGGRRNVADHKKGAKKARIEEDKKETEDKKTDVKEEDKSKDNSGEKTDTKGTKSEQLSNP

EL4 = assay: Antitumor activity against mouse EL4 cells implanted in mouse assessed as tumor weight inhibition at 15 mg/kg, ip measured after 12 days relative to control; format: functional; settings: EL4, 288 h, time 12 day
U-266 = assay: Antiproliferative activity against human U-266 cells measured after 72 hrs by CCK-8 assay; format: functional, cell-based; settings: U-266, 72 h, pooled result: one value given for 9 cell lines, strains, targets or settings
K562 [7] = assay: Antiproliferative activity against human K562 cells measured after 72 hrs by CCK-8 assay; format: functional, cell-based; settings: K562, 72 h
HCT-116 [8] = assay: cells; settings: Homo sapiens
Description: Antiproliferative activity against human HCT-116 cells

[9] = biological target: Serine/threonine-protein kinase B-raf (Homo sapiens, UniProt P15056, V600E); assay: Inhibition of BRAF V600E mutant (unknown origin)
Sequence of Serine/threonine-protein kinase B-raf (Homo sapiens, UniProt P15056, V600E) (P15056 2-766 V600E limits assumed): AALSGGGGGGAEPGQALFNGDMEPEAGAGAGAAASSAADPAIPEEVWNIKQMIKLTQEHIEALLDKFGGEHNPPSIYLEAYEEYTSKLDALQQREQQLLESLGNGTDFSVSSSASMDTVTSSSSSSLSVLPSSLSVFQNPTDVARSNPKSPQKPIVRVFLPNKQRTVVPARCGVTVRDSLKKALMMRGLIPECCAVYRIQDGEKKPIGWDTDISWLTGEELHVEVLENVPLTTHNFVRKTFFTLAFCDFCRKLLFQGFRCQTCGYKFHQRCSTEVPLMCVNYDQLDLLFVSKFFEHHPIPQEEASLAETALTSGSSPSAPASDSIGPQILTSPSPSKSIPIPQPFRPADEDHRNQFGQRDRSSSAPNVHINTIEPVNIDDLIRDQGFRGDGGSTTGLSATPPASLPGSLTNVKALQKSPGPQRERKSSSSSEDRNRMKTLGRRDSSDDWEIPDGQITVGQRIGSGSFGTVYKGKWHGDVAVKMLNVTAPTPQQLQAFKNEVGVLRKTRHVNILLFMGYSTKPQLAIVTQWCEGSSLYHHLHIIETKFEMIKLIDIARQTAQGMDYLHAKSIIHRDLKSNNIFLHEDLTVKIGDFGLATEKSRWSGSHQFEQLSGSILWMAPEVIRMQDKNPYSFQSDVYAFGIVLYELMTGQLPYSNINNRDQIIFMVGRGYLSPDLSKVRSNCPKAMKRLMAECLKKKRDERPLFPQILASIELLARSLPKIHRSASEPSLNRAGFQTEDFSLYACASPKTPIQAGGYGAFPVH

[10] = biological target: Serine/threonine-protein kinase B-raf (Homo sapiens, UniProt P15056); assay: Inhibition of wild type BRAF (unknown origin)
Sequence of Serine/threonine-protein kinase B-raf (Homo sapiens, UniProt P15056) (P15056 whole entry): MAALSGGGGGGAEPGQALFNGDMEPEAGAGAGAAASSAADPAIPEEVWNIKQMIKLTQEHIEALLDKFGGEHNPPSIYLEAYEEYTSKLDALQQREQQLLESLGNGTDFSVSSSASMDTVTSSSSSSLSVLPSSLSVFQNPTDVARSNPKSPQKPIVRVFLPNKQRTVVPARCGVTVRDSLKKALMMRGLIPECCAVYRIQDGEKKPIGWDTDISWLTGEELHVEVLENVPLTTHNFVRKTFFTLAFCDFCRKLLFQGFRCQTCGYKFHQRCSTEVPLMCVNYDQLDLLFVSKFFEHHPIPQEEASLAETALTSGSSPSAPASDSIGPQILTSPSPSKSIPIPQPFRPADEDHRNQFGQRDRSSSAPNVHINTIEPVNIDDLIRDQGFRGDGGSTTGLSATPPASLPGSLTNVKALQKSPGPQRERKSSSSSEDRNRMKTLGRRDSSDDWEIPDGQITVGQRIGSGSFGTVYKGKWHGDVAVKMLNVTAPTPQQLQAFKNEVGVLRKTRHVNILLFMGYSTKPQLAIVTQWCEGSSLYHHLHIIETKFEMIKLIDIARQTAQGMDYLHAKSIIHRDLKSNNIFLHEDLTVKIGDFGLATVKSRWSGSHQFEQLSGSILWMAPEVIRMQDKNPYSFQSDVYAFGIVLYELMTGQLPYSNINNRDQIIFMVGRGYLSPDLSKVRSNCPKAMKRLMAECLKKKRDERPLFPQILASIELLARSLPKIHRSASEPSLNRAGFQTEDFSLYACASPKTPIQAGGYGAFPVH

O=C(CCCCCCC(=O)Nc1ccc2ncnc(Nc3cccc(Cl)c3)c2c1)NO
IC50 (DU-145): 1180 nM
IC50 (Histone deacetylase): 474 nM
inhibition [1]: 75%

COc1ccc(-c2ocnc2-c2cc(OC)c(OC)c(OC)c2)cc1OCCCC(=O)NO
IC50 (HCT 116 TP53(-/-)): 180 nM
IC50 [2]: ~1000 nM
IC50 (Huh-7): 180 nM
IC50 (HCT-116 [3]): 180 nM
IC50 at 72 h [4]: > 50000 nM
IC50 (518A2): 180 nM
IC50 (HepG2): 180 nM

COc1ncc(-c2cc(OCCCCCCC(=O)NO)c3ncnc(C)c3c2)cc1F
IC50 (K562 [5]): 23 nM
IC50 (Histone deacetylase 8): 1.4 nM
inhibition (INH) (HGC-27): 62.6%
inhibition in vivo at 15 mg/kg (A20): 60%
inhibition (INH) (HCT-116 [6]): 45.8%
IC50 (Histone deacetylase 2): 1.4 nM
inhibition in vivo at 15 mg/kg (EL4): 78.1%

O=C(NO)c1ccc(N2CCN(C(=O)c3cc(-c4ccc(-c5ccccc5)cc4)nc4ccccc34)CC2)cc1
IC50 (U-266): 1080 nM
IC50 (K562 [7]): 1080 nM

O=C(CCCCCCNc1nccc(-c2sc(-c3ccccc3)nc2-c2cccc(NS(=O)(=O)c3c(F)cccc3F)c2F)n1)NO
IC50 (HCT-116 [8]): 310 nM
IC50 [9]: 1.71 nM
IC50 [2]: 15.6 nM
IC50 [10]: 1.71 nM
